Bridge positions count the residues as written; N and C are the ends. Square brackets hold non-standard residues; d marks the D form. Peptide text beside a SMILES is read from it. ξ: configuration not given here. Trp(1-Me) = Cn1cc(C[C@H](N)C(=O)O)c2ccccc21; 2Nal = N[C@@H](Cc1ccc2ccccc2c1)C(=O)O; dOrn = NCCC[C@@H](N)C(=O)O; ξOrn = NCCCC(N)C(=O)O; Aib = CC(C)(N)C(=O)O
The compounds below were run against Interleukin-23 subunit alpha/receptor (UniProt Q5VWK5) (assay: ELISA assay for specific human IL-23R inhibitors).
Sequence of Interleukin-23 subunit alpha/receptor (Q9NPF7 whole entry): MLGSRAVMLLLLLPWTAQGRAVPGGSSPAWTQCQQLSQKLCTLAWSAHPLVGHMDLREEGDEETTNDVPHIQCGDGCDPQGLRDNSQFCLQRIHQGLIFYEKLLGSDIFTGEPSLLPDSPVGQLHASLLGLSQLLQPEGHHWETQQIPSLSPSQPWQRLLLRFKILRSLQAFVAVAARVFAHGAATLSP
Sequence of Interleukin-23 subunit alpha/receptor (Q5VWK5 whole entry): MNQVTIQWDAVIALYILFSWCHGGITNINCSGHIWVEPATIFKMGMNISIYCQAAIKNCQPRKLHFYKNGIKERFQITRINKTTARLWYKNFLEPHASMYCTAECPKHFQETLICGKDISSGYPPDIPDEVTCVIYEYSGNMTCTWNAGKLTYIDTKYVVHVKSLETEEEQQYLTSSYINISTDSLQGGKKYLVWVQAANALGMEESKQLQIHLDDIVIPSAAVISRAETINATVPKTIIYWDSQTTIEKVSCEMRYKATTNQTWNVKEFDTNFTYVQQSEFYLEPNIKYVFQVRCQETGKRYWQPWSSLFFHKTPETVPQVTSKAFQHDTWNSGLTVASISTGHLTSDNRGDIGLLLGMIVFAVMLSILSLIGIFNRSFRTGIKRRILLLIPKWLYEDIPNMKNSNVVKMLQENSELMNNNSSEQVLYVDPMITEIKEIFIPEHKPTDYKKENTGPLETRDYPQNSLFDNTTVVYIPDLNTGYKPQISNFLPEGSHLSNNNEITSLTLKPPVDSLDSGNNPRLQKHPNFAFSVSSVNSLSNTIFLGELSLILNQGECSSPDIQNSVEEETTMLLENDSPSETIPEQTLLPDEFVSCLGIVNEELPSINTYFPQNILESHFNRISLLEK
Protocol: A 384-well plate was coated with 50 µl/well of human IL-23 at a final concentration of […] and incubated overnight at 4°C. The wells were washed 3 times with […] wash buffer and blocked with […] blocking buffer for 60 minutes at room temperature and washed again. 20 µl of serially diluted test peptides was added to each well and subsequently 20 µl of recombinant human IL-23R-Fc chimera at final concentration of […]. The plate was incubated for 60 minutes at room temperature. After the wells were washed, bound IL-23R-Fc was detected with goat anti-hu- IgG 1 -HRP antibody. Signals were visualized with QuantaBlu Fluorogenic Peroxidase Substrate.
Compound `COc1ccc(C[C@@H]2NC(=O)[C@H](CCCNC(=N)N)NC(=O)[C@H](CCC(N)=O)NC(=O)[C@H](Cc3c[nH]c4ccccc34)NC(=O)[C@H]([C@@H](C)O)NC(=O)[C@H](CC(N)=O)NC(=O)[C@H](NC(C)=O)CC(=O)NCCCC[C@@H](C(=O)N[C@@H](CC(N)=O)C(=O)N[C@@H](CC(N)=O)C(=O)O)NC(=O)C(C)(C)NC(=O)[C@H](Cc3ccc4ccccc4c3)NC2=O)cc1` [WO2025051920, Example 12] has an IC50 of 14.9 nM.
In the case of `COc1ccc(C[C@@H]2NC(=O)[C@H](CCCNC(=N)N)NC(=O)[C@H](CCC(N)=O)NC(=O)[C@H](Cc3c[nH]c4ccccc34)NC(=O)[C@H]([C@@H](C)O)NC(=O)[C@H](CC(N)=O)NC(=O)[C@H](NC(C)=O)CC(=O)NCCC[C@@H](C(=O)N[C@@H](CC(N)=O)C(=O)N[C@@H](CC(N)=O)C(=O)O)NC(=O)C(C)(C)NC(=O)[C@H](Cc3ccc4ccccc4c3)NC2=O)cc1` [WO2025051920, Example 13], the IC50 is reported as 6.24 nM.
Compound `CC(=O)N[C@@H]1CCCCNC(=O)C[C@@H](C(=O)N[C@@H](CC(N)=O)C(=O)N[C@@H](CC(N)=O)C(=O)O)NC(=O)C(C)(C)NC(=O)[C@H](Cc2cccc3ccccc23)NC(=O)[C@H](Cc2ccc(O)cc2)NC(=O)[C@H](CCCNC(=N)N)NC(=O)[C@H](CCC(N)=O)NC(=O)[C@H](Cc2c[nH]c3ccccc23)NC(=O)[C@H]([C@@H](C)O)NC(=O)[C@H](CC(N)=O)NC1=O` [WO2025051920, Example 14] has an IC50 of 5.42 nM.
`COc1ccc(C[C@@H]2NC(=O)[C@H](CCCNC(=N)N)NC(=O)[C@H](CCC(N)=O)NC(=O)[C@H](Cc3c[nH]c4ccccc34)NC(=O)[C@H]([C@@H](C)O)NC(=O)[C@H](CC(N)=O)NC(=O)[C@H](NC(C)=O)CCCCNC(=O)C[C@@H](C(=O)N[C@@H](CC(N)=O)C(=O)N[C@@H](CC(N)=O)C(=O)O)NC(=O)[C@H](CCCCNC(C)=O)NC(=O)[C@H](Cc3cccc4ccccc34)NC2=O)cc1` [WO2025051920, Example 17] showed an IC50 of 7.87 nM.
`COc1ccc(C[C@@H]2NC(=O)[C@H](CCCNC(=N)N)NC(=O)[C@H](CCC(N)=O)NC(=O)[C@H](Cc3c[nH]c4ccccc34)NC(=O)[C@H]([C@@H](C)O)NC(=O)[C@H](CC(N)=O)NC(=O)[C@H](NC(C)=O)CCCCNC(=O)C[C@@H](C(=O)N[C@@H](CC(N)=O)C(=O)N[C@@H](CC(N)=O)C(=O)O)NC(=O)[C@H](CCCNC(N)=O)NC(=O)[C@H](Cc3cccc4ccccc34)NC2=O)cc1` [WO2025051920, Example 18] was tested, and the IC50 was 11.7 nM.
Work on `COc1ccc(C[C@@H]2NC(=O)[C@H](CCCNC(=N)N)NC(=O)[C@H](CCC(N)=O)NC(=O)[C@H](Cc3c[nH]c4ccccc34)NC(=O)[C@H]([C@@H](C)O)NC(=O)[C@H](CC(N)=O)NC(=O)[C@H](NC(C)=O)CCCCNC(=O)C[C@@H](C(=O)N[C@@H](CC(N)=O)C(=O)N[C@@H](CC(N)=O)C(=O)O)NC(=O)[C@H](CCC(N)=O)NC(=O)[C@H](Cc3cccc4ccccc34)NC2=O)cc1` [WO2025051920, Example 19] yielded an IC50 of 15.6 nM.
With `COc1ccc(C[C@@H]2NC(=O)[C@H](C(C)C)NC(=O)[C@H](CCC(N)=O)NC(=O)[C@H](Cc3c[nH]c4ccccc34)NC(=O)[C@H]([C@@H](C)O)NC(=O)[C@H](CC(N)=O)NC(=O)[C@H](NC(C)=O)CCCCNC(=O)C[C@@H](C(=O)N[C@@H](CC(N)=O)C(=O)N[C@@H](CC(N)=O)C(=O)O)NC(=O)C(C)(C)NC(=O)[C@H](Cc3cccc4ccccc34)NC2=O)cc1` [WO2025051920, Example 20] the IC50 was 15.9 nM.
Compound `COc1ccc(C[C@@H]2NC(=O)C(C)(C)NC(=O)[C@H](CCC(N)=O)NC(=O)[C@H](Cc3c[nH]c4ccccc34)NC(=O)[C@H]([C@@H](C)O)NC(=O)[C@H](CC(N)=O)NC(=O)[C@H](NC(C)=O)CCCCNC(=O)C[C@@H](C(=O)N[C@@H](CC(N)=O)C(=O)N[C@@H](CC(N)=O)C(=O)O)NC(=O)C(C)(C)NC(=O)[C@H](Cc3cccc4ccccc34)NC2=O)cc1` [WO2025051920, Example 21] has an IC50 of 16.9 nM.
Compound `COc1ccc(C[C@@H]2NC(=O)[C@H](CCCNC(=N)N)NC(=O)[C@H](CCC(N)=O)NC(=O)[C@H](Cc3c[nH]c4ccccc34)NC(=O)[C@H]([C@@H](C)O)NC(=O)[C@H](CC(N)=O)NC(=O)[C@H](NC(C)=O)CCCNC(=O)CC[C@@H](C(=O)N[C@@H](CC(N)=O)C(=O)N[C@@H](CC(N)=O)C(=O)O)NC(=O)C(C)(C)NC(=O)[C@H](Cc3cccc4ccccc34)NC2=O)cc1` [WO2025051920, Example 22] has an IC50 of 48.4 nM.
Compound `COc1ccc(C[C@@H]2NC(=O)[C@H](CCCNC(=N)N)NC(=O)[C@H](CCC(N)=O)NC(=O)[C@H](Cc3cn(C)c4ccccc34)NC(=O)[C@H]([C@@H](C)O)NC(=O)[C@H](CC(N)=O)NC(=O)[C@H](NC(C)=O)CCCCNC(=O)C[C@@H](C(=O)N[C@@H](CC(N)=O)C(=O)N[C@@H](CC(N)=O)C(=O)O)NC(=O)[C@@H](Cc3cscn3)NC(=O)[C@H](Cc3ccc4ccccc4c3)NC2=O)cc1` [WO2025051920, Example 25] has an IC50 of 9.61 nM.
Compound `COc1ccc(C[C@@H]2NC(=O)[C@H](CCCNC(=N)N)NC(=O)[C@H](CCC(N)=O)NC(=O)[C@H](Cc3c[nH]c4ccccc34)NC(=O)[C@H]([C@@H](C)O)NC(=O)[C@H](CC(N)=O)NC(=O)[C@H](NC(C)=O)CCCNC(=O)C[C@@H](C(=O)N[C@@H](CC(N)=O)C(=O)N[C@@H](CC(N)=O)C(N)=O)NC(=O)C(C)(C)NC(=O)[C@H](Cc3ccc4ccccc4c3)NC2=O)cc1` [WO2025051920, Example 27] (Ac-[dOrn]NTWQRY(Me)[2Nal][Aib]DNN-NH2; lactam 1-10) has an IC50 of 19.7 nM.
`COc1ccc(C[C@@H]2NC(=O)[C@H](CCCNC(=N)N)NC(=O)[C@H](CCC(N)=O)NC(=O)[C@H](Cc3c[nH]c4ccccc34)NC(=O)[C@H]([C@@H](C)O)NC(=O)[C@H](CC(N)=O)NC(=O)[C@H](NC(C)=O)CCCCNC(=O)C[C@@H](C(=O)N[C@@H](CC(N)=O)C(=O)N[C@@H](CC(N)=O)C(=O)O)NC(=O)[C@H](CCCCN)NC(=O)[C@H](Cc3ccc4ccccc4c3)NC2=O)cc1` [WO2025051920, Example 28] gave an IC50 of 9.03 nM.
With `COc1ccc(C[C@@H]2NC(=O)[C@H](CCCNC(=N)N)NC(=O)[C@H](CCC(N)=O)NC(=O)[C@H](Cc3c[nH]c4ccccc34)NC(=O)[C@H]([C@@H](C)O)NC(=O)[C@H](CC(N)=O)NC(=O)[C@H](NC(C)=O)CCCCNC(=O)C[C@@H](C(=O)N[C@@H](CC(N)=O)C(=O)N[C@@H](CC(N)=O)C(=O)O)NC(=O)[C@H](CCCNC(N)=O)NC(=O)[C@H](Cc3ccc4ccccc4c3)NC2=O)cc1` [WO2025051920, Example 29] the IC50 was 5.63 nM.
`COc1ccc(C[C@@H]2NC(=O)[C@H](CCCNC(=N)N)NC(=O)[C@H](CCC(N)=O)NC(=O)[C@H](Cc3c[nH]c4ccccc34)NC(=O)[C@H]([C@@H](C)O)NC(=O)[C@H](CC(N)=O)NC(=O)[C@H](NC(C)=O)CCCCNC(=O)C[C@@H](C(=O)N[C@@H](CC(N)=O)C(=O)N[C@@H](CC(N)=O)C(=O)O)NC(=O)[C@H](CCC(N)=O)NC(=O)[C@H](Cc3ccc4ccccc4c3)NC2=O)cc1` [WO2025051920, Example 30] gave an IC50 of 9.64 nM.
In the case of `COc1ccc(C[C@@H]2NC(=O)[C@H](C(C)C)NC(=O)[C@H](CCC(N)=O)NC(=O)[C@H](Cc3c[nH]c4ccccc34)NC(=O)[C@H]([C@@H](C)O)NC(=O)[C@H](CC(N)=O)NC(=O)[C@H](NC(C)=O)CCCCNC(=O)C[C@@H](C(=O)N[C@@H](CC(N)=O)C(=O)N[C@@H](CC(N)=O)C(=O)O)NC(=O)C(C)(C)NC(=O)[C@H](Cc3ccc4ccccc4c3)NC2=O)cc1` [WO2025051920, Example 31], the IC50 is reported as 8.27 nM.
Work on `COc1ccc(C[C@@H]2NC(=O)C(C)(C)NC(=O)[C@H](CCC(N)=O)NC(=O)[C@H](Cc3c[nH]c4ccccc34)NC(=O)[C@H]([C@@H](C)O)NC(=O)[C@H](CC(N)=O)NC(=O)[C@H](NC(C)=O)CCCCNC(=O)C[C@@H](C(=O)N[C@@H](CC(N)=O)C(=O)N[C@@H](CC(N)=O)C(=O)O)NC(=O)C(C)(C)NC(=O)[C@H](Cc3ccc4ccccc4c3)NC2=O)cc1` [WO2025051920, Example 32] yielded an IC50 of 2.68 nM.
For `CC(=O)N[C@H]1CC(=O)NCCCC(C(=O)N[C@@H](CC(N)=O)C(=O)N[C@@H](CC(N)=O)C(=O)O)NC(=O)C(C)(C)NC(=O)[C@H](Cc2ccc3ccccc3c2)NC(=O)[C@H](Cc2ccc(O)cc2)NC(=O)[C@H](CCCNC(=N)N)NC(=O)[C@H](CCC(N)=O)NC(=O)[C@H](Cc2cn(C)c3ccccc23)NC(=O)[C@H]([C@@H](C)O)NC(=O)[C@H](CC(N)=O)NC1=O` (stereo not given in full) [WO2025051920, Example 33] (Ac-DNT[Trp(1-Me)]QRY[2Nal][Aib][ξOrn]NN-OH; lactam 1-10), the IC50 was 3.36 nM.
`COc1ccc(C[C@@H]2NC(=O)[C@H](CCCNC(=N)N)NC(=O)[C@H](CCC(N)=O)NC(=O)[C@H](Cc3cn(C)c4ccccc34)NC(=O)[C@H]([C@@H](C)O)NC(=O)[C@H](CC(N)=O)NC(=O)[C@@H](NC(C)=O)CC(=O)NCCCC(C(=O)N[C@@H](CC(N)=O)C(=O)N[C@@H](CC(N)=O)C(=O)O)NC(=O)C(C)(C)NC(=O)[C@H](Cc3ccc4ccccc4c3)NC2=O)cc1` (stereo not given in full) [WO2025051920, Example 34] (Ac-DNT[Trp(1-Me)]QRY(Me)[2Nal][Aib][ξOrn]NN-OH; lactam 1-10) was tested, and the IC50 was 2.16 nM.
Work on `COc1ccc(C[C@@H]2NC(=O)[C@H](CCCNC(=N)N)NC(=O)[C@H](CCC(N)=O)NC(=O)[C@H](Cc3cn(C)c4ccccc34)NC(=O)[C@H]([C@@H](C)O)NC(=O)[C@H](CC(N)=O)NC(=O)[C@@H](NC(C)=O)CCC(=O)NCCCC(C(=O)N[C@@H](CC(N)=O)C(=O)N[C@@H](CC(N)=O)C(=O)O)NC(=O)C(C)(C)NC(=O)[C@H](Cc3ccc4ccccc4c3)NC2=O)cc1` (stereo partly drawn) [WO2025051920, Example 35] (Ac-ENT[Trp(1-Me)]QRY(Me)[2Nal][Aib][ξOrn]NN-OH; lactam 1-10) yielded an IC50 of 4.55 nM.
`COc1ccc(C[C@@H]2NC(=O)[C@H](CCCNC(=N)N)NC(=O)[C@H](CCC(N)=O)NC(=O)[C@H](Cc3cn(C)c4ccccc34)NC(=O)[C@H]([C@@H](C)O)NC(=O)[C@H](CC(N)=O)NC(=O)[C@@H](NC(C)=O)CC(=O)NCCCC(C(=O)N[C@@H](CC(N)=O)C(=O)N[C@@H](CC(N)=O)C(=O)O)NC(=O)C(C)(C)NC(=O)[C@H](Cc3c[nH]c4ccccc34)NC2=O)cc1` (stereo not given in full) [WO2025051920, Example 36] (Ac-DNT[Trp(1-Me)]QRY(Me)W[Aib][ξOrn]NN-OH; lactam 1-10) was tested, and the IC50 was 19.5 nM.
